{"source": "patent US7365088B2", "about": "“Indazole-derivatives as factor Xa inhibitors” (Sanofi-Aventis Deutschland GmbH, priority 2003, dated 2008)"}
{"target": "human factor Xa (Homo sapiens, UniProt P00742)", "sequence (P00742 235-488 limits assumed)": "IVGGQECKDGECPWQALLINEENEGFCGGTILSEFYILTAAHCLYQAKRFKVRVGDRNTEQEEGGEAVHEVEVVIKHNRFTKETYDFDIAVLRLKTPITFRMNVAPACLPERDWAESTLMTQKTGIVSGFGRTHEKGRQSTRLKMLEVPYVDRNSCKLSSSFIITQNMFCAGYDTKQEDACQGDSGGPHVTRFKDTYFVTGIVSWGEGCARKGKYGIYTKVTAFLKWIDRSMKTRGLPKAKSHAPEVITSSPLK", "sequence (P00742 41-179 partner limits assumed)": "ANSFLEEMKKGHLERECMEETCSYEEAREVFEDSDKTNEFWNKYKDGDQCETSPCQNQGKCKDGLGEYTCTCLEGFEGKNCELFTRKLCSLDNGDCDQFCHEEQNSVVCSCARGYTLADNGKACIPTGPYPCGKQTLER", "assay": "Factor Xa assay (chromogenic, substrate S-2765)", "units": {"Ki": "nM"}}
{"smiles": "CC(C)N1CCC(NC(=O)c2nn(Cc3cc(-c4ccc(Cl)s4)on3)c3ccc(C(=O)N4CC(C(=O)O)C4)cc23)CC1", "note": "[Example 52, 1-[1-[5-(5-Chloro-thiophen-2-yl)-isoxazol-3-ylmethyl]-3-(1-isopropyl-piperidin-4-ylcarbamoyl)-1H-indazole-5-carbonyl]-azetidine-3-carboxylic acid]", "Ki": 10}
{"smiles": "O=C(Cn1nc(C(=O)Nc2ccc(N3CCOCC3=O)cc2)c2ccccc21)Nc1ccc(Cl)cn1", "note": "[Example 53, 1-[(5-Chloro-pyridin-2-ylcarbamoyl)-methyl]-1H-indazole-3-carboxylic acid [4-(3-oxo-morpholin-4-yl)-phenyl]-amide]", "Ki": 240}
{"smiles": "O=C(Nc1ccc(-n2ccc(=O)cc2)cc1)c1nn(Cc2cc(-c3ccc(Cl)s3)on2)c2ccccc12", "note": "[Example 54, 1-[5-(5-Chloro-thiophen-2-yl)-isoxazol-3-ylmethyl]-1H-indazole-3-carboxylic acid [4-(4-oxo-4H-pyridin-1-yl)-phenyl]-amide]", "Ki": 52}
{"smiles": "COCCOC(=O)c1ccc2c(c1)c(C(=O)NC1CCN(C(C)C)CC1)nn2Cc1cc(-c2ccc(Cl)s2)on1", "note": "[Example 56, 1-[5-(5-Chloro-thiophen-2-yl)-isoxazol-3-ylmethyl]-3-(1-isopropyl-piperidin-4-ylcarbamoyl)-1H-indazole-5-carboxylic acid 2-methoxy-ethyl ester]", "Ki": 43}
